Source: PMC9151520 (Archives of Toxicology, 2022)
Values joined by “and” are separate entries in the source; they are usually repeats but may differ in a detail not shown here. Equal entries are not always repeated. Where two headings read alike, the source gives them in different places.

Columns and labels:
[1] = system: p53 signaling (p53RE-bla HCT-116 cells)
[2] = rat
p53RE-bla HCT-116 cells [3] = system: p53RE-bla HCT-116 cells
[4] = system: p53 signaling (p53RE-bla HCT-116 cells); test: cells; format: cell-based; conditions: for Emax / EC50: Homo sapiens
[5] = system: p53 signaling (p53RE-bla HCT-116 cells); remark: listed apart in the source
p53RE-bla HCT-116 cells [6] = test: cells; conditions: Homo sapiens
[7] = system: p53 signaling (p53RE-bla HCT-116 cells); test: cells; conditions: Homo sapiens
[8] = system: p53 signaling (p53RE-bla HCT-116 cells); test: cells; format: cell-based; conditions: Homo sapiens; for EC50: HCT-116; for Emax: HCT-116, read-out: efficacy
[9] = system: p53 signaling (p53RE-bla HCT-116 cells); test: cells; conditions: Homo sapiens, HCT-116, read-out: p53 activation EC50, HLM
[10] = system: p53 signaling (p53RE-bla HCT-116 cells); test: cells; format: cell-based
[11] = HCT-116, read-out: p53 activation efficacy
[12] = HCT-116, read-out: p53 activation EC50, primary screening
[13] = HCT-116, read-out: p53 activation EC50, cherry pick confirmation
[14] = HCT-116, read-out: p53 activation efficacy, cherry pick confirmation
[15] = HCT-116, read-out: Viability EC50, cherry pick confirmation
[16] = HCT-116, read-out: Viability EC50, primary screening
[17] = HCT-116, read-out: p53 activation efficacy, primary screening
[18] = HCT-116, read-out: EC50, p53 activation, cherry pick confirmation
[19] = HCT-116, read-out: EC50, p53 activation, primary screening
[20] = HCT-116, read-out: Efficacy, p53 activation, cherry pick confirmation
[21] = HCT-116, read-out: Efficacy, p53 activation, primary screening
[22] = HCT-116, read-out: EC50, viability, primary screening

## CCOP(=S)(OCC)Oc1cc(C)nc(N(CC)CC)n1 [Pirimiphos-ethyl]
[1]
  EC50: 2.07 µM
[1]; read-out: p53 activation EC50, RLM
  EC50: 1.91 µM and 3.44 µM
[2]
  Depletion after 16 h of incubation with cells: 95.16 ± 0.46%
p53RE-bla HCT-116 cells [3]
  Viability EC50, HLM: inactive
  Viability EC50, No MS: inactive
  Viability EC50, RLM: inactive
  Viability Efficacy, HLM: inactive
  Viability Efficacy, No MS: inactive
  Viability Efficacy, RLM: inactive
[4]
  p53 activation EC50, No MS: inactive
  p53 activation Efficacy, No MS: inactive
[5]
  p53 activation EC50, HLM: inactive
[5]; read-out: p53 activation EC50, HLM
  EC50: 3.88 µM

## Nc1nc(N)c2nc(CNc3ccc(C(=O)N[C@@H](CCC(=O)O)C(=O)O)cc3)cnc2n1 [Aminopterin]
[1]
  p53 activation efficacy: 37.0427
p53RE-bla HCT-116 cells [6]; HCT-116, read-out: Viability EC50
  EC50: 0.191 µM
p53RE-bla HCT-116 cells [3]
  Viability EC50: inactive
[4]
  p53 activation efficacy: 45.6293
[4]; [11]
  Emax: 39.2%
[7]; [11]
  Emax: 48.5%
[5]
  p53 activation EC50: inactive
  p53 activation efficacy: inactive

## CCOP(=S)(OCC)Oc1ccc([N+](=O)[O-])cc1 [Parathion]
[2]
  Depletion after 16 h of incubation with cells: 98.86 ± 0.34%
p53RE-bla HCT-116 cells [3]
  Viability EC50, HLM: inactive
  Viability EC50, No MS: inactive
  Viability EC50, RLM: inactive
  Viability Efficacy, HLM: inactive
  Viability Efficacy, No MS: inactive
  Viability Efficacy, RLM: inactive
[8]
  EC50: 1.45 µM
  Emax: 35.6%
[4]
  p53 activation EC50, No MS: inactive
  p53 activation Efficacy, No MS: inactive
[9]
  EC50: 1.2 µM
[7]; HCT-116
  EC50: 1.11 µM
[7]; HCT-116, read-out: efficacy
  Emax: 36.3%
[10]
  EC50: Inactive
[5]
  p53 activation EC50, HLM: inactive

## c1ccc2c(c1)[nH]c1cnccc12 [Norharman]
[2]
  Depletion after 16 h of incubation with cells: 85.03 ± 0.42%
p53RE-bla HCT-116 cells [3]
  Viability EC50, cherry pick confirmation: inactive
  Viability EC50, primary screening: inactive
  Viability efficacy, cherry pick confirmation: inactive
  Viability efficacy, primary screening: inactive
[8]
  EC50: 20 µM
  Emax: 76.4%
[4]
  p53 activation EC50, cherry pick confirmation: inactive
  p53 activation efficacy, cherry pick confirmation: inactive
[4]; [12]
  EC50: 41.4 µM
[7]; HCT-116
  EC50: 28.1 µM
[7]; HCT-116, read-out: efficacy
  Emax: 73.8%
[7]; [13]
  EC50: 29.6 µM
[7]; [12]
  EC50: 32.6 µM
[7]; [14]
  Emax: 71%
[10]
  EC50: Inactive
[5]
  p53 activation EC50, cherry pick confirmation: inactive
  p53 activation EC50, primary screening: inactive
  p53 activation efficacy, cherry pick confirmation: inactive
  p53 activation efficacy, primary screening: inactive

## CCOc1ccc2c(c1)C(C)=CC(C)(C)N2 [Ethoxyquin]
[1]
  p53 activation EC50, cherry pick confirmation: inactive
  p53 activation efficacy, cherry pick confirmation: inactive
p53RE-bla HCT-116 cells [6]; [15]
  EC50: 51.1 µM
p53RE-bla HCT-116 cells [6]; [16]
  EC50: 54.2 µM
p53RE-bla HCT-116 cells [3]
  Viability EC50, cherry pick confirmation: inactive
  Viability EC50, primary screening: inactive
p53RE-bla HCT-116 cells [3]; read-out: Viability EC50, cherry pick confirmation
  EC50: 48.2 µM
[4]
  p53 activation EC50, cherry pick confirmation: inactive
  p53 activation EC50, primary screening: inactive
  p53 activation efficacy, cherry pick confirmation: inactive
  p53 activation efficacy, primary screening: inactive
[7]; [12]
  EC50: 39.1 µM
[7]; [17]
  Emax: 50.4%
[5]
  p53 activation EC50, cherry pick confirmation: inactive
  p53 activation EC50, primary screening: inactive
  p53 activation efficacy, cherry pick confirmation: inactive
  p53 activation efficacy, primary screening: inactive

## CC1CCC(C(C)C)C(OC(=O)c2ccccc2N)C1 (centres unmarked) [Menthyl anthranilate]
[1]
  p53 activation EC50, cherry pick confirmation: inactive
  p53 activation efficacy, cherry pick confirmation: inactive
p53RE-bla HCT-116 cells [6]; [15]
  EC50: 33.8 µM
p53RE-bla HCT-116 cells [6]; [16]
  EC50: 36 µM
p53RE-bla HCT-116 cells [3]
  Viability EC50, cherry pick confirmation: inactive
  Viability EC50, primary screening: inactive
[4]; [13]
  EC50: 0.837 µM
[4]; [12]
  EC50: 48.8 µM
[4]; [14]
  Emax: 40.4%
[4]; [17]
  Emax: 62.5%
[7]; [12]
  EC50: 34.8 µM
[7]; [17]
  Emax: 70.8%
[5]
  p53 activation EC50, cherry pick confirmation: inactive
  p53 activation EC50, primary screening: inactive
  p53 activation efficacy, cherry pick confirmation: inactive
  p53 activation efficacy, primary screening: inactive

## Cc1cccc2c1cc1ccc3cccc4ccc2c1c34 [7-Methylbenzo(a)pyrene]
[2]
  Depletion after 16 h of incubation with cells: 52.01 ± 27.41%
p53RE-bla HCT-116 cells [3]
  Viability EC50, HLM: inactive
  Viability EC50, No MS: inactive
  Viability EC50, RLM: inactive
  Viability Efficacy, HLM: inactive
  Viability Efficacy, No MS: inactive
  Viability Efficacy, RLM: inactive
[8]
  EC50: 27.5 µM
[4]
  p53 activation Efficacy, No MS: 64.7403%
[4]; HCT-116, read-out: p53 activation Efficacy, No MS
  Emax: 59.2%
[7]; HCT-116
  EC50: 34.3 µM
[10]; Homo sapiens, HCT-116, 0.5 h
  EC50: 32.9 µM

## CCOP(=S)(OCC)Oc1nc(Cl)n(C(C)C)n1 [Isazofos]
[1]
  EC50: 8.27 µM
  p53 activation efficacy: 50.5712 and 50.6263
[2]
  Depletion after 16 h of incubation with cells: 97.88 ± 0.31%
p53RE-bla HCT-116 cells [3]
  Viability EC50: inactive
  Viability efficacy: inactive
[4]
  p53 activation EC50: inactive
  p53 activation efficacy: inactive
[5]
  p53 activation EC50: inactive
[5]; read-out: p53 activation EC50
  EC50: 1.62 µM

## Cc1nc(N)nc(N)c1-c1ccc(Cl)c(Cl)c1 [Methodichlorophen]
[1]
  EC50, p53 activation, cherry pick confirmation: inactive
  EC50, p53 activation, primary screening: inactive
  Efficacy, p53 activation, cherry pick confirmation: inactive
  Efficacy, p53 activation, primary screening: inactive
p53RE-bla HCT-116 cells [6]; HCT-116, read-out: EC50, viability, cherry pick confirmation
  EC50: 1.58 µM
p53RE-bla HCT-116 cells [3]
  EC50, viability, cherry pick confirmation: inactive
  EC50, viability, primary screening: inactive
  Efficacy, viability, primary screening: inactive
[4]; [18]
  EC50: 9.01 µM
[4]; [19]
  EC50: 5.92 µM
[4]; [20]
  Emax: 31.4%
[4]; [21]
  Emax: 42.9%
[5]
  EC50, p53 activation, cherry pick confirmation: inactive
  EC50, p53 activation, primary screening: inactive
  Efficacy, p53 activation, cherry pick confirmation: inactive
  Efficacy, p53 activation, primary screening: inactive

## Oc1c(I)cc(I)cc1I [2,4,6-Triiodophenol]
[1]
  EC50, p53 activation, cherry pick confirmation: inactive
  EC50, p53 activation, primary screening: inactive
  Efficacy, p53 activation, cherry pick confirmation: inactive
  Efficacy, p53 activation, primary screening: inactive
p53RE-bla HCT-116 cells [6]; [22]
  EC50: 19 µM
p53RE-bla HCT-116 cells [3]
  EC50, viability, cherry pick confirmation: inactive
  EC50, viability, primary screening: inactive
[4]
  EC50, p53 activation, cherry pick confirmation: inactive
  Efficacy, p53 activation, cherry pick confirmation: inactive
[4]; [19]
  EC50: 20.7 µM
[4]; [21]
  Emax: 27.1%
[5]
  EC50, p53 activation, cherry pick confirmation: inactive
  EC50, p53 activation, primary screening: inactive
  Efficacy, p53 activation, cherry pick confirmation: inactive
  Efficacy, p53 activation, primary screening: inactive

## COC(=O)C1=C(C)NC(COC(N)=O)=C(C(=O)OC(C)C)C1c1cccc(Cl)c1Cl (centres unmarked) [Lemildipine]
[1]
  p53 activation EC50, cherry pick confirmation: inactive
  p53 activation efficacy, cherry pick confirmation: inactive
p53RE-bla HCT-116 cells [6]; [15]
  EC50: 19.9 µM
p53RE-bla HCT-116 cells [3]
  Viability EC50, cherry pick confirmation: inactive
  Viability EC50, primary screening: inactive
  Viability efficacy, primary screening: inactive
[4]
  p53 activation EC50, cherry pick confirmation: inactive
  p53 activation EC50, primary screening: inactive
  p53 activation efficacy, cherry pick confirmation: inactive
  p53 activation efficacy, primary screening: inactive
[7]; [12]
  EC50: 20.7 µM
[7]; [17]
  Emax: 59.7%
[5]
  p53 activation EC50, cherry pick confirmation: inactive
  p53 activation EC50, primary screening: inactive
  p53 activation efficacy, cherry pick confirmation: inactive
  p53 activation efficacy, primary screening: inactive

## CC(C)(C)[C@H]1CC[C@H](CC2=C(O)C(=O)c3ccccc3C2=O)CC1 [Buparvaquone]
[1]
  p53 activation EC50, cherry pick confirmation: inactive
  p53 activation EC50, primary screening: inactive
  p53 activation efficacy, cherry pick confirmation: inactive
  p53 activation efficacy, primary screening: inactive
p53RE-bla HCT-116 cells [6]; [15]
  EC50: 1.99 µM
p53RE-bla HCT-116 cells [3]
  Viability EC50, cherry pick confirmation: inactive
  Viability EC50, primary screening: inactive
  Viability efficacy, primary screening: inactive
[4]
  p53 activation EC50, cherry pick confirmation: inactive
  p53 activation efficacy, cherry pick confirmation: inactive
[4]; [12]
  EC50: 1.41 µM
[4]; [17]
  Emax: 33.8%
[5]
  p53 activation EC50, cherry pick confirmation: inactive
  p53 activation EC50, primary screening: inactive
  p53 activation efficacy, cherry pick confirmation: inactive
  p53 activation efficacy, primary screening: inactive

## Oc1ccc(C(c2ccc(O)cc2)(C(F)(F)F)C(F)(F)F)cc1 [Bisphenol AF]
[1]
  EC50, p53 activation, cherry pick confirmation: inactive
  EC50, p53 activation, primary screening: inactive
  Efficacy, p53 activation, cherry pick confirmation: inactive
  Efficacy, p53 activation, primary screening: inactive
p53RE-bla HCT-116 cells [6]; [22]
  EC50: 47.4 µM
p53RE-bla HCT-116 cells [3]
  EC50, viability, cherry pick confirmation: inactive
  EC50, viability, primary screening: inactive
  Efficacy, viability, cherry pick confirmation: inactive
p53RE-bla HCT-116 cells [3]; read-out: EC50, viability, primary screening
  EC50: 47.6 µM
[4]; [18]
  EC50: 31.7 µM
[4]; [19]
  EC50: 28.9 µM
[4]; [20]
  Emax: 55.4%
[4]; [21]
  Emax: 33.6%
[5]
  EC50, p53 activation, cherry pick confirmation: inactive
  EC50, p53 activation, primary screening: inactive
  Efficacy, p53 activation, cherry pick confirmation: inactive
  Efficacy, p53 activation, primary screening: inactive
